The source made the active and inactive calls. No cut-off for these calls is given here.
How the values were obtained:
[1] = Antioxidant activity assessed as DPPH radical scavenging activity at 25 to 200 uM measured after 30 mins; format: functional
Liver [2] = test: Antioxidant activity in rat hepatic microsomes assessed as inhibition of FeSO4-induced lipid peroxidation at 1 to 1000 uM measured after 45 mins by spectrophotometry; format: functional; details: microsome
[3] = Antioxidant activity assessed as DPPH radical scavenging activity at 200 uM measured after 30 mins relative to control; format: functional
[4] = Antioxidant activity assessed as DPPH radical scavenging activity at 100 uM measured after 30 mins relative to control; format: functional
[5] = Antioxidant activity assessed as DPPH radical scavenging activity at 50 uM measured after 30 mins relative to control; format: functional
Liver [6] = test: Antioxidant activity in rat hepatic microsomes assessed as inhibition of FeSO4-induced lipid peroxidation measured after 45 mins by spectrophotometry; format: functional, microsome; details: 0.75 h
Rattus norvegicus [7] = test: Anti-inflammatory activity in rat assessed as reduction in carrageenan-induced hind paw oedema at 0.15 mmol/kg, ip pretreated for 5 mins followed by carrageenan challenge measured after 3.5 hrs; format: functional; design: scale not given: the % may be the effect or the level left
Lipoxygenase = Lipoxygenase (Glycine max, UniProt Q39829); test: Inhibition of soybean lipoxygenase using sodium linoleate as substrate measured after 7 mins
Rattus norvegicus [8] = test: Hypolipidemic activity in triton WR1339-induced rat model of hyperlipidemia assessed as reduction in plasma total cholesterol level at 150 umol/kg, ip administered after 1 hr post triton WR1339 challenge measured after 24 hrs relative to control; format: functional; design: scale not given: the % may be the effect or the level left
Rattus norvegicus [9] = test: Hypolipidemic activity in triton WR1339-induced rat model of hyperlipidemia assessed as reduction in plasma total triglyceride level at 150 umol/kg, ip administered after 1 hr post triton WR1339 challenge measured after 24 hrs relative to control; format: functional; design: scale not given: the % may be the effect or the level left
Rattus norvegicus [10] = test: Protection against paracetamol-induced liver injury in rat assessed as reduction in plasma GPT level at 1 mmol/kg, po measured at 24 hrs post paracetamol challenge relative to control; format: functional; design: scale not given: the % may be the effect or the level left
Rattus norvegicus [11] = test: Protection against paracetamol-induced liver injury in rat assessed as reduction in plasma GOT level at 1 mmol/kg, po measured at 24 hrs post paracetamol challenge relative to control; format: functional; design: scale not given: the % may be the effect or the level left
Rattus norvegicus [12] = test: Protection against paracetamol-induced liver injury in rat assessed as reduction in plasma LDH level at 1 mmol/kg, po measured at 24 hrs post paracetamol challenge relative to control; format: functional; design: scale not given: the % may be the effect or the level left
Liver [13] = test: Potency index, ratio of trolox IC50 to test compound IC50 for inhibition FeSO4-induced lipid peroxidation in rat hepatic microsomes; format: functional; details: microsome
Mus musculus = test: Anti-inflammatory activity in Balb/C mouse assessed as reduction in carrageenan-induced hind paw oedema at 0.15 mmol/kg, ip pretreated for 1 hr followed by carrageenan challenge; format: functional; design: scale not given: the % may be the effect or the level left

IC50 (Liver [6]) [µM] | SMILES | inhibition (Liver [2]) | Activity [3] [%] | Activity [4] [%] | Activity [5] [%] | Activity (Rattus norvegicus [7]) [%] | also measured
 | CCOC(=O)C(CSSCC(NC(=O)/C=C/c1ccccc1)C(=O)OCC)NC(=O)/C=C/c1ccccc1 (stereo unspecified) | inactive |  |  |  |  | Activity [1]: Active
40 | CCOC(=O)C(CS)NC(=O)/C=C/c1cc(C(C)(C)C)c(O)c(C(C)(C)C)c1 (stereo unspecified) |  | 96 | 70 | 37 | 61 | IC50 (Lipoxygenase): 135 µM
3 | CCOC(=O)C(CS)NC(=O)C1(C)CCc2c(C)c(O)c(C)c(C)c2O1 (stereo unspecified) |  | 93 | 91 | 61 | 39 | Activity (Rattus norvegicus [8]): 73%; Activity (Rattus norvegicus [9]): 72.3%; Activity (Rattus norvegicus [10]): 64%; Activity (Rattus norvegicus [11]): 70%; Activity (Rattus norvegicus [12]): 78%; Ratio IC50 (Liver [13]): 10
 | O=C(/C=C/c1ccccc1)NCCSSCCNC(=O)/C=C/c1ccccc1 | inactive |  |  |  | 42 | Activity [1]: Active
250 | CC(C)(C)c1cc(C(=O)O)cc(C(C)(C)C)c1O |  |  |  |  |  | 
30 | CC(C)(C)c1cc(/C=C/C(=O)NCCS)cc(C(C)(C)C)c1O |  | 92 | 60 | 34 | 67 | IC50 (Lipoxygenase): 160 µM
 | NCCS [CYSTEAMINE] |  |  |  |  |  | Activity (Mus musculus): 15%
 | CCOC(=O)C(CS)NC(=O)/C=C/c1ccccc1 (stereo unspecified) | inactive | 86 | 42 | 27 | 35 | 
 | O=C(/C=C/c1ccccc1)NCCS | inactive | 86 | 59 | 31 | 38 | 
25 | Cc1c(C)c2c(c(C)c1O)CCC(C)(C(=O)O)O2 (stereo unspecified) [TROLOX] |  |  |  |  |  | 
200 | CCOC(=O)C(CS)NC(=O)c1cc(C(C)(C)C)c(O)c(C(C)(C)C)c1 (stereo unspecified) |  | 85 | 46 | 23 | 59 | IC50 (Lipoxygenase): 67 µM
 | CCOC(=O)C(CSSCC(NC(=O)c1cc(C(C)(C)C)c(O)c(C(C)(C)C)c1)C(=O)OCC)NC(=O)c1cc(C(C)(C)C)c(O)c(C(C)(C)C)c1 (stereo unspecified) | inactive |  |  |  | 36 | Activity [1]: Active
45 | CC(C)(C)c1cc(C(=O)NCCS)cc(C(C)(C)C)c1O |  | 85 | 45 | 20 | 87 | IC50 (Lipoxygenase): 121 µM
 | CC(C)(C)c1cc(C(=O)NCCSSCCNC(=O)c2cc(C(C)(C)C)c(O)c(C(C)(C)C)c2)cc(C(C)(C)C)c1O | inactive |  |  |  |  | Activity [1]: Active
 | CC(C)Cc1ccc(C(C)C(=O)O)cc1 (stereo unspecified) [IBUPROFEN] |  |  |  |  | 36 | 
1.6 | Cc1c(C)c2c(c(C)c1O)CCC(C)(C(=O)NCCS)O2 (stereo unspecified) |  | 93 | 92 | 61 | 67 | Activity (Rattus norvegicus [8]): 67.1%; Activity (Rattus norvegicus [9]): 47.3%; Activity (Rattus norvegicus [10]): 15%; Activity (Rattus norvegicus [11]): 26%; Activity (Rattus norvegicus [12]): 70%; Ratio IC50 (Liver [13]): 10
 | CCOC(=O)[C@@H](N)CS |  |  |  |  |  | Activity (Mus musculus): 25%

Source: ChEMBL document CHEMBL4177601, “Dual antioxidant structures with potent anti-inflammatory, hypolipidemic and cytoprotective properties” (Bioorg Med Chem Lett, 2017)
